Results taken from ChEMBL document CHEMBL5360529, “Pyrimidine derivatives with antitubercular activity” (Eur J Med Chem, 2023).

Biological target: T1, Thymidylate kinase (Mycobacterium tuberculosis, UniProt P9WKE1)
T1 sequence (P9WKE1 whole entry): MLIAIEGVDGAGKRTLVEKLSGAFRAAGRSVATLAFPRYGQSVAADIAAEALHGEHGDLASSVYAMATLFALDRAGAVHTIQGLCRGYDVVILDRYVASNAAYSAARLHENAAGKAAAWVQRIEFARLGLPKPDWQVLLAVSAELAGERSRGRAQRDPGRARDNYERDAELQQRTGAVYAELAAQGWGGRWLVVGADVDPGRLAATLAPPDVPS
Assay: Inhibition of recombinant Mycobacterium tuberculosis TMPK overexpressed in Escherichia coli assessed as inhibition constant by spectrophotometric assay

Q: Which Ki does the source give for `Cc1cn(C/C=C\CN2c3cccc4cccc(c34)S2(=O)=O)c(=O)[nH]c1=O` here?
A: 270 nM
